Laboratory results as given in ChEMBL document CHEMBL4507305, “Data for DCP probe TP-024” (2021).

Assays:
[1] = system: Tyrosine-protein kinase ABL1 (Homo sapiens), P00519 [Q252H]; conditions: Compound concentration 1000.0 nM
[2] = target: Activin receptor type-1 (Homo sapiens) (UniProt Q04771); conditions: Compound concentration 1000.0 nM
[3] = target: Activin receptor type-2B (Homo sapiens) (UniProt Q13705); conditions: Compound concentration 1000.0 nM
[4] = system: ALK tyrosine kinase receptor (Homo sapiens), Q9UM73 [L1196M]; conditions: Compound concentration 1000.0 nM
[5] = target: Ankyrin repeat and protein kinase domain-containing protein 1 (Homo sapiens) (UniProt Q8NFD2); conditions: Compound concentration 1000.0 nM
[6] = target: Bone morphogenetic protein receptor type-1B (Homo sapiens) (UniProt O00238); conditions: Compound concentration 1000.0 nM
[7] = target: Calcium/calmodulin-dependent protein kinase type 1 (Homo sapiens) (UniProt Q14012); conditions: Compound concentration 1000.0 nM
[8] = target: Cyclin-dependent kinase-like 1 (Homo sapiens) (UniProt Q00532); conditions: Compound concentration 1000.0 nM
[9] = target: Serine/threonine-protein kinase Chk1 (Homo sapiens) (UniProt O14757); conditions: Compound concentration 1000.0 nM
[10] = target: Death-associated protein kinase 3 (Homo sapiens) (UniProt O43293); conditions: Compound concentration 1000.0 nM
[11] = target: Dual specificity tyrosine-phosphorylation-regulated kinase 1A (Homo sapiens) (UniProt Q13627); conditions: Compound concentration 1000.0 nM
[12] = target: Dual specificity tyrosine-phosphorylation-regulated kinase 1B (Homo sapiens) (UniProt Q9Y463); conditions: Compound concentration 1000.0 nM
[13] = target: Epidermal growth factor receptor (Homo sapiens) (UniProt P00533); conditions: Compound concentration 1000.0 nM
[14] = target: Vascular endothelial growth factor receptor 1 (Homo sapiens) (UniProt P17948); conditions: Compound concentration 1000.0 nM
[15] = target: Cyclin-G-associated kinase (Homo sapiens) (UniProt O14976); conditions: Compound concentration 1000.0 nM
[16] = target: G protein-coupled receptor kinase 3 (Homo sapiens) (UniProt P35626); conditions: Compound concentration 1000.0 nM
[17] = target: Serine/threonine-protein kinase haspin (Homo sapiens) (UniProt Q8TF76); conditions: Compound concentration 1000.0 nM
[18] = target: Homeodomain-interacting protein kinase 1 (Homo sapiens) (UniProt Q86Z02); conditions: Compound concentration 1000.0 nM
[19] = target: Insulin-like growth factor 1 receptor (Homo sapiens) (UniProt P08069); conditions: Compound concentration 1000.0 nM
[20] = target: Inhibitor of nuclear factor kappa-B kinase subunit alpha (Homo sapiens) (UniProt O15111); conditions: Compound concentration 1000.0 nM
[21] = target: Tyrosine-protein kinase JAK3 (Homo sapiens) (UniProt P52333); conditions: Compound concentration 1000.0 nM
[22] = system: Mast/stem cell growth factor receptor Kit (Homo sapiens), P10721 [D816H]; conditions: Compound concentration 1000.0 nM
[23] = target: Tyrosine-protein kinase Mer (Homo sapiens) (UniProt Q12866); conditions: Compound concentration 1000.0 nM
[24] = target: Misshapen-like kinase 1 (Homo sapiens) (UniProt Q8N4C8); conditions: Compound concentration 1000.0 nM
[25] = target: Serine/threonine-protein kinase Nek4 (Homo sapiens) (UniProt P51957); conditions: Compound concentration 1000.0 nM
[26] = target: Serine/threonine-protein kinase NLK (Homo sapiens) (UniProt Q9UBE8); conditions: Compound concentration 1000.0 nM
[27] = target: Serine/threonine-protein kinase PAK 2 (Homo sapiens) (UniProt Q13177); conditions: Compound concentration 1000.0 nM
[28] = system: Phosphatidylinositol 4,5-bisphosphate 3-kinase catalytic subunit alpha isoform (Homo sapiens), P42336 [Q546K]; conditions: Compound concentration 1000.0 nM
[29] = target: Serine/threonine-protein kinase pim-3 (Homo sapiens) (UniProt Q86V86); conditions: Compound concentration 1000.0 nM
[30] = target: Phosphatidylinositol 5-phosphate 4-kinase type-2 gamma (Homo sapiens) (UniProt Q8TBX8); conditions: Compound concentration 1000.0 nM
[31] = target: cAMP-dependent protein kinase catalytic subunit alpha (Homo sapiens) (UniProt P17612); conditions: Compound concentration 1000.0 nM
[32] = target: Serine/threonine-protein kinase N2 (Homo sapiens) (UniProt Q16513); conditions: Compound concentration 1000.0 nM
[33] = target: Protein kinase C iota type (Homo sapiens) (UniProt P41743); conditions: Compound concentration 1000.0 nM
[34] = target: Proto-oncogene tyrosine-protein kinase receptor Ret (Homo sapiens) (UniProt P07949); conditions: Compound concentration 1000.0 nM
[35] = target: Mitogen-activated protein kinase kinase kinase 7 (Homo sapiens) (UniProt O43318); conditions: Compound concentration 1000.0 nM
[36] = target: Serine/threonine-protein kinase TAO1 (Homo sapiens) (UniProt Q7L7X3); conditions: Compound concentration 1000.0 nM
[37] = target: Serine/threonine-protein kinase TAO2 (Homo sapiens) (UniProt Q9UL54); conditions: Compound concentration 1000.0 nM
[38] = target: Activated CDC42 kinase 1 (Homo sapiens) (UniProt Q07912); conditions: Compound concentration 1000.0 nM
[39] = target: Serine/threonine-protein kinase TNNI3K (Homo sapiens) (UniProt Q59H18); conditions: Compound concentration 1000.0 nM
[40] = target: 5-hydroxytryptamine receptor 1E (Homo sapiens) (UniProt P28566); conditions: Compound concentration 10.0 uM
[41] = target: 5-hydroxytryptamine receptor 7 (Homo sapiens) (UniProt P34969); conditions: Compound concentration 10.0 uM
[42] = target: Sodium-dependent serotonin transporter (Homo sapiens) (UniProt P31645); conditions: Compound concentration 10.0 uM
[43] = target: Mu-type opioid receptor (Homo sapiens) (UniProt P35372); conditions: Compound concentration 10.0 uM
[44] = target: Histamine H3 receptor (Homo sapiens) (UniProt Q9Y5N1); conditions: Compound concentration 10.0 uM
[45] = target: Muscarinic acetylcholine receptor M5 (Homo sapiens) (UniProt P08912); conditions: Compound concentration 10.0 uM
Rattus norvegicus = species: Rattus norvegicus; conditions: Compound concentration 10.0 uM

Chain of Activated CDC42 kinase 1 (Homo sapiens) (Q07912 whole entry, looked up): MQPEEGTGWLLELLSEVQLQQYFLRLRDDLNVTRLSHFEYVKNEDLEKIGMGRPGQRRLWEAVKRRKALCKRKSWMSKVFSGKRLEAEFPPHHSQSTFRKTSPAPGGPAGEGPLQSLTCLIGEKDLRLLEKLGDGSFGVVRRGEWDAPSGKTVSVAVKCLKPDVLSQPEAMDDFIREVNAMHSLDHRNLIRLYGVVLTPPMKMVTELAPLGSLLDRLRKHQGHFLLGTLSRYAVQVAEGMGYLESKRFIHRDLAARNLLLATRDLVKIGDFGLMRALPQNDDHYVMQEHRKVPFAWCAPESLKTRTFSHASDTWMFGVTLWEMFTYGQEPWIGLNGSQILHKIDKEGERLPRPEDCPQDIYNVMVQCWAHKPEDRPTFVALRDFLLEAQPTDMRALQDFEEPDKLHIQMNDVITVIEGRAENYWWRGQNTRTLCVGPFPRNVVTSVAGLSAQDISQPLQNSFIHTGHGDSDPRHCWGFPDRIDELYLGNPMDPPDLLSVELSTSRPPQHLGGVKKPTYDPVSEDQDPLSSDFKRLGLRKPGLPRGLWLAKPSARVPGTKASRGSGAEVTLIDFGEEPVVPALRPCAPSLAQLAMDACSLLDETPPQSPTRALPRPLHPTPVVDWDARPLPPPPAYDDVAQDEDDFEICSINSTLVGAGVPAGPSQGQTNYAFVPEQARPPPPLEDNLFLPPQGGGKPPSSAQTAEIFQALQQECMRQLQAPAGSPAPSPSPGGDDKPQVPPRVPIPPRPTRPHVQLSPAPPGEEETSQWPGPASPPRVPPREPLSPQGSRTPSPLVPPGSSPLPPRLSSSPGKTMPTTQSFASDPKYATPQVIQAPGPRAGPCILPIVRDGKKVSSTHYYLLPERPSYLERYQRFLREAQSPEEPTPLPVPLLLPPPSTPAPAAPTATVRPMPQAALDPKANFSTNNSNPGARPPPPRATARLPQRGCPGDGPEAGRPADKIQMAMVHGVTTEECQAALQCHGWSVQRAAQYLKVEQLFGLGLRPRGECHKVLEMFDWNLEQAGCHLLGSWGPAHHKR
Chain of Activin receptor type-1 (Homo sapiens) (Q04771 whole entry): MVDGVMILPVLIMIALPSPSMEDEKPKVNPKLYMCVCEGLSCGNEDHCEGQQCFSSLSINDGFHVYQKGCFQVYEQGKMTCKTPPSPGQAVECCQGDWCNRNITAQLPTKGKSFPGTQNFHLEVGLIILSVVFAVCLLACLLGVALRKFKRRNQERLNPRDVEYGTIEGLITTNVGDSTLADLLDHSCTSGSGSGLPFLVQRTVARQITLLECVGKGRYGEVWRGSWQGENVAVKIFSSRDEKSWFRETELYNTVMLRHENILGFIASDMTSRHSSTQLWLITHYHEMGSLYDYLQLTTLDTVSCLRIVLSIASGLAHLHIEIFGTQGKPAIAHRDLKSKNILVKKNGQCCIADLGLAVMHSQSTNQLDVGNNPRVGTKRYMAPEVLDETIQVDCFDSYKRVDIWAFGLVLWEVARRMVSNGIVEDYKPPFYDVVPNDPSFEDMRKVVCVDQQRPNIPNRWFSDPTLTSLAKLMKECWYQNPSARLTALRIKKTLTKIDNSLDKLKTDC
Chain of Inhibitor of nuclear factor kappa-B kinase subunit alpha (Homo sapiens) (O15111 whole entry): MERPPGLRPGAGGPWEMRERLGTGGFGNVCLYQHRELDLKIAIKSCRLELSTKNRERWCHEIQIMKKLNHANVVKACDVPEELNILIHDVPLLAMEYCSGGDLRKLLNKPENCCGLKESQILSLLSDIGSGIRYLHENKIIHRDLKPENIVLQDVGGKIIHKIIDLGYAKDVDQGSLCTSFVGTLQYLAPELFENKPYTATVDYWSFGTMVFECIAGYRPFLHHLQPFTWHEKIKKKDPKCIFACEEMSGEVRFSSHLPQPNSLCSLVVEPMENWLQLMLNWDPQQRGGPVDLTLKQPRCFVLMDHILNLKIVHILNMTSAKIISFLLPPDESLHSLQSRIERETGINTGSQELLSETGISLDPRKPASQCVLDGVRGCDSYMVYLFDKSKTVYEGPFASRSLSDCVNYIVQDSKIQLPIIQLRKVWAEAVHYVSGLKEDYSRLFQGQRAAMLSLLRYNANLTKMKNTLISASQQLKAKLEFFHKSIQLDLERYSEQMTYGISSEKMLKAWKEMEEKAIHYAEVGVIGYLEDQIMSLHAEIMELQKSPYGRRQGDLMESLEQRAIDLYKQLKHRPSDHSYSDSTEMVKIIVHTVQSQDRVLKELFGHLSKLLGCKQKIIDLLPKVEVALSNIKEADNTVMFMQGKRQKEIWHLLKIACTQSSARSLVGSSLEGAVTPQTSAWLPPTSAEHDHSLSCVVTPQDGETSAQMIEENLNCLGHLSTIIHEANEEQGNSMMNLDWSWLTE
Chain of Phosphatidylinositol 5-phosphate 4-kinase type-2 gamma (Homo sapiens) (Q8TBX8 whole entry): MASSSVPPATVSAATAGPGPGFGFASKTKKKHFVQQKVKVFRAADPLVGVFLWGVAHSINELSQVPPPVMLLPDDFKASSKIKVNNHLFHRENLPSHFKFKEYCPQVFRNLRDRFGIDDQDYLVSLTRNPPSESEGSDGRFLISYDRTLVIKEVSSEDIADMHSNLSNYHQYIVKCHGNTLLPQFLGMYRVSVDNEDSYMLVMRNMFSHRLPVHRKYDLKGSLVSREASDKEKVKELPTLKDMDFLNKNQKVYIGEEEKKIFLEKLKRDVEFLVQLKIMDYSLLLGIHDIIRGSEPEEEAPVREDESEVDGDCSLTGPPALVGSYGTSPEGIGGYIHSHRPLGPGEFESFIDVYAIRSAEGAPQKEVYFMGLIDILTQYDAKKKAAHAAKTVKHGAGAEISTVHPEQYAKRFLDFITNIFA
Chain of Mitogen-activated protein kinase kinase kinase 7 (Homo sapiens) (O43318 whole entry): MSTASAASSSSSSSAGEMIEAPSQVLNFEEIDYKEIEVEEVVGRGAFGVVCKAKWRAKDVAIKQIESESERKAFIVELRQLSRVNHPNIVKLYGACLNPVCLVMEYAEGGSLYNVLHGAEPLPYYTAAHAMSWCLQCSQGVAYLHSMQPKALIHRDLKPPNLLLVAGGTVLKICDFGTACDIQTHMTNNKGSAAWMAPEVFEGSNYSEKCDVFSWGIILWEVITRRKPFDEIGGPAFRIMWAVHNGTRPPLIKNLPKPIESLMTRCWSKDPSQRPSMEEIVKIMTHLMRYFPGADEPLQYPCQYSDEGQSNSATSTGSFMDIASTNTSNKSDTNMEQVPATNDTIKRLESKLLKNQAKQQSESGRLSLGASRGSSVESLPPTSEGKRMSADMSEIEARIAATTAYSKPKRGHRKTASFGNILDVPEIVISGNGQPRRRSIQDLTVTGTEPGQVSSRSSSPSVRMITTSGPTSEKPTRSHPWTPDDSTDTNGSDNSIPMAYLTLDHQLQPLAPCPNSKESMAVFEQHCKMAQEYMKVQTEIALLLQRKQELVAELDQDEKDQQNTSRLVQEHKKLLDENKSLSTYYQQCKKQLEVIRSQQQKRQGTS
Chain of Cyclin-G-associated kinase (Homo sapiens) (O14976 whole entry): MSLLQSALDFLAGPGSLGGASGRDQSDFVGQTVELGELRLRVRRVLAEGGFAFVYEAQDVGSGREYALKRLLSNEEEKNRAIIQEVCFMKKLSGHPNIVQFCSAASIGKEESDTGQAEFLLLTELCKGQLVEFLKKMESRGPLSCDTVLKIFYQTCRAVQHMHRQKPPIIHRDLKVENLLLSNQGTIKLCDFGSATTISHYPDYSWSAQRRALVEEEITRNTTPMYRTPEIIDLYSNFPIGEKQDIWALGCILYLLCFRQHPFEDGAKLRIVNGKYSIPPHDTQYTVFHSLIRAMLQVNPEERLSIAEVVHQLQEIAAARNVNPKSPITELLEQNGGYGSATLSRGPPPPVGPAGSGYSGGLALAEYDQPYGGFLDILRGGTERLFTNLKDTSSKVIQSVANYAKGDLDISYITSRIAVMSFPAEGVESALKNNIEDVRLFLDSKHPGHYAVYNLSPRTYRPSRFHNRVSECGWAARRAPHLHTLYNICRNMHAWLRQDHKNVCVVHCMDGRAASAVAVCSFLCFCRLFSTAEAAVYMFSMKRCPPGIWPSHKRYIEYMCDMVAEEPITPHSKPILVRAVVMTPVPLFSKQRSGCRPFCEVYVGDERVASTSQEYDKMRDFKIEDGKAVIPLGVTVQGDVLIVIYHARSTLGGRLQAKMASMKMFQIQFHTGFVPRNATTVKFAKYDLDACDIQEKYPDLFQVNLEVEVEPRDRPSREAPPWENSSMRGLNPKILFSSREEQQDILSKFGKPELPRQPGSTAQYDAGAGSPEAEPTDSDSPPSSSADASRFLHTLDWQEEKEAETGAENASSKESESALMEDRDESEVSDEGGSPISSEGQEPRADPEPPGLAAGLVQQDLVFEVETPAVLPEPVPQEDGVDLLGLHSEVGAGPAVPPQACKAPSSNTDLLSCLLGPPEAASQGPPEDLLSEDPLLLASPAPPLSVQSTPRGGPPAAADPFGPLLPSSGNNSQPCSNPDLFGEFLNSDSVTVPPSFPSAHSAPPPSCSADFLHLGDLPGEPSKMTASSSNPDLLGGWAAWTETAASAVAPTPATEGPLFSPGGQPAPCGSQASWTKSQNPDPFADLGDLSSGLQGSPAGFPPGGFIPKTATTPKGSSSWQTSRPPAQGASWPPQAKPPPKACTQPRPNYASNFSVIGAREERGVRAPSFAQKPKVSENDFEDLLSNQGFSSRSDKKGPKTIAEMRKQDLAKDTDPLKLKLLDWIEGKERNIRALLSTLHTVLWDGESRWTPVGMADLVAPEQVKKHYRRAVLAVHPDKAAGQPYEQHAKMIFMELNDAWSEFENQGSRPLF
Chain of Calcium/calmodulin-dependent protein kinase type 1 (Homo sapiens) (Q14012 whole entry, looked up): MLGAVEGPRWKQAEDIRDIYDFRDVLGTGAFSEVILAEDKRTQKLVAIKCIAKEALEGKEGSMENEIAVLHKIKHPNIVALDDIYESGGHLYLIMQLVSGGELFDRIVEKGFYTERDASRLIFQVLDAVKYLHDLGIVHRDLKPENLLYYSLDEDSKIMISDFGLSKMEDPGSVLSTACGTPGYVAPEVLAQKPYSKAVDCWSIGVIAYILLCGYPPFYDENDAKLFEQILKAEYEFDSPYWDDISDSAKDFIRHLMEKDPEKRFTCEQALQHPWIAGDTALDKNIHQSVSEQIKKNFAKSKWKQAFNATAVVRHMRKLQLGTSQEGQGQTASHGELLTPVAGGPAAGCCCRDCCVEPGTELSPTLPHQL

Cc1cc(-n2nc(Cc3cc(F)cc(C(F)(F)F)c3)nc2C)ccc1C(N)=O [TP-024]
residual activity [1]: 94%
residual activity [2]: 100%
residual activity [3]: 100%
residual activity [4]: 100%
residual activity [5]: 100%
residual activity [6]: 100%
residual activity [7]: 90%
residual activity [8]: 71%
residual activity [9]: 100%
residual activity [10]: 87%
residual activity [11]: 92%
residual activity [12]: 100%
residual activity [13]: 100%
residual activity [14]: 100%
residual activity [15]: 100%
residual activity [16]: 100%
residual activity [17]: 100%
residual activity [18]: 92%
residual activity [19]: 98%
residual activity [20]: 100%
residual activity [21]: 100%
residual activity [22]: 100%
residual activity [23]: 100%
residual activity [24]: 93%
residual activity [25]: 100%
residual activity [26]: 100%
residual activity [27]: 75%
residual activity [28]: 76%
residual activity [29]: 100%
residual activity [30]: 100%
residual activity [31]: 100%
residual activity [32]: 100%
residual activity [33]: 100%
residual activity [34]: 96%
residual activity [35]: 100%
residual activity [36]: 91%
residual activity [37]: 91%
residual activity [38]: 100%
residual activity [39]: 100%
inhibition [40]: 10.5%
inhibition [41]: 21.4%
inhibition [42]: -1.29%
inhibition [43]: 0.37%
inhibition [44]: 11.4%
inhibition [45]: -2.07%
inhibition (Rattus norvegicus): 7.23%

Cc1nc(Cc2cccc(C(F)(F)F)c2)sc1-c1ccc(C(N)=O)nc1 [TP-024n]
residual activity [1]: 87%
residual activity [2]: 100%
residual activity [3]: 86%
residual activity [4]: 100%
residual activity [5]: 95%
residual activity [6]: 94%
residual activity [7]: 86%
residual activity [8]: 85%
residual activity [9]: 100%
residual activity [10]: 88%
residual activity [11]: 67%
residual activity [12]: 100%
residual activity [13]: 100%
residual activity [14]: 100%
residual activity [15]: 91%
residual activity [16]: 100%
residual activity [17]: 100%
residual activity [18]: 92%
residual activity [19]: 100%
residual activity [20]: 100%
residual activity [21]: 100%
residual activity [22]: 100%
residual activity [23]: 98%
residual activity [24]: 92%
residual activity [25]: 100%
residual activity [26]: 100%
residual activity [27]: 60%
residual activity [28]: 86%
residual activity [29]: 100%
residual activity [30]: 0.3%
residual activity [31]: 75%
residual activity [32]: 91%
residual activity [33]: 100%
residual activity [34]: 100%
residual activity [35]: 93%
residual activity [36]: 81%
residual activity [37]: 86%
residual activity [38]: 100%
residual activity [39]: 100%
inhibition [40]: 9.13%
inhibition [41]: 16.4%
inhibition [42]: -7.18%
inhibition [43]: 5.75%
inhibition [44]: 3.48%
inhibition [45]: 11.2%
inhibition (Rattus norvegicus): 4.9%
